Experimental findings from patent publication US10246498B2, “Genetically encoded histone reporter allele constructs” (THE JOHNS HOPKINS UNIVERSITY, priority 2014, dated 2019) are described below.

For series [1], the system named is H3K4 trimethylation. The experiment in a line: H3K4 trimethylation (H3K4me3) reporter allele, GFP fluorescence by FACS. The note with it: FIG. 18F. It counts as cell-based. The text has this:
(§1) An H3K4 trimethylation reporter was also created (FIG. 5B). This reporter is based on the H3 tail on one end and the TBP associated factor III (TAFIII) […] on the other end; the TAFIII […] only identifies and binds to trimethylated K4 on H3. When the H3K4 site gets trimethylated, the TAFIII […] can bind to the modified H3 tail and bring the two parts of the separated GFP in close proximity. The activity of the epigenetic modification system can be quantified through fluorescence.
Epigenetic reporter alleles were synthesized (OriGene, Rockville, Md.) using published sequences for component elements (Baird et al. (1999) Proc. Natl. Acad. Sci. 96:11241-6; Souslova et al. (2007) BMC Biotechnol. 7:37). Single nucleotide mutations were created using the QuickChange Lightening kit (Agilent Technologies Inc, Santa Clara, Calif.). […] FACS data were analyzed using FlowJo (Tree Star Inc, Ashland, Oreg.). […]
Epigenetic reporter systems were created that monitor either H4 acetylation or H3K4 trimethylation machinery activity in an effort to determine whether there is an ongoing activity deficiency in cells from Kmt2d^+/βGeo mice (FIG. 18A). Both reporter alleles encode halves of green fluorescent protein separated by a flexible linker region (Baird et al. (1999) Proc. Natl. Acad. Sci. 96: 11241-6) with a histone tail and a histone reader at the N- and C-termini, respectively. […]
On the technique in general: A flow cytometer gives signals particle by particle.

The test system of series [2] is H3K4 trimethylation activity in MEFs. The experiment in a line: H3K4me3 indicator in murine embryonic fibroblasts from Kmt2d+/βGeo and Kmt2d+/+ mice. It counts as cell-based, mouse.
Excerpt: as §1
Epigenetic reporter alleles were synthesized (OriGene, Rockville, Md.) using published sequences for component elements (Baird et al. (1999) Proc. Natl. Acad. Sci. 96:11241-6; Souslova et al. (2007) BMC Biotechnol. 7:37). Single nucleotide mutations were created using the QuickChange Lightening kit (Agilent Technologies Inc, Santa Clara, Calif.). For H4ac indicator, K5R, K8R, K12R, K16R and K20R (MUT indicator) were introduced. For H3K4me3 indicator, K4Q and D890A/W891A and M882A (three separate constructs) were introduced. For transient transfections, mouse embryonic fibroblasts (see below) were transfected with Fugene HD (Promega, Madison, Wis.), 48 hours prior to FACS. […] For drug stimulation, drug was added to the media 24 hours prior to FACS. For stable transfections in T293 (American Type Culture Collection) cells, 10 μg/ml of Blastocidin (Life Technologies, Carlsbad, Calif.) was added to the media for several weeks. For stable transfection in MEFs, the reporter was transferred to a ViraPower Lentiviral Expression System (Life Technologies, Carlsbad, Calif.). After selection with Blastocidin, the drug of interest was added 24 hours prior to FACS. SAHA, AR-42 and MS275 were purchased from Selleck (Selleck Chemicals, Houston, Tex.). […] FACS data were analyzed using FlowJo (Tree Star Inc, Ashland, Oreg.). A plasmid expressing HDAC3 was acquired from Addgene (Cambridge, Mass., plasmid 13819) and transfected into a stable cell line carrying the H4 acetyl reporter allele.

On to `CC(C)[C@H](C(=O)Nc1ccc(C(=O)NO)cc1)c1ccccc1` [AR-42], for which the cell numbers result in series [1] (higher doses) is recorded as “decreased cell numbers at higher doses”. Also, the “response of the H3K4me3 indicator” value in series [1] (increasing levels of drug) was “dose dependent response”. Moreover, the “dose at which Kmt2d+/βGeo MEFs achieve untreated wild-type levels of activity” value in series [2] (Kmt2d+/βGeo MEFs) was 5 µM. The H3K4 trimethylation activity entry in series [2] (Kmt2d+/βGeo cells (MEFs)) is “enhanced”. Moreover, the “H3K4me3 indicator activity in MEFs” value in series [2] (both genotypes (Kmt2d+/+ and Kmt2d+/βGeo)) is given as “dose-dependent response”.
